Assay results as given in PubChem BioAssay (NCI).
Values joined by “and” are separate entries in the source; they are usually repeats but may differ in a detail not shown here. Equal entries are not always repeated.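 Tested at 5 concentrations; 48 h exposure; 96-well plates; endpoints linearly interpolated, else capped at highest concentration. The concentration for 50% growth inhibition is given as GI50. At the TGI there is no net growth.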

Tests used:
Test in all cases: NCI anticancer screen, dose series, 48 h
OVCAR-5 ovarian = system: OVCAR-5 ovarian
HCT-15 colon = system: HCT-15 colon
SW-620 colon = system: SW-620 colon
OVCAR-8 ovarian = system: OVCAR-8 ovarian
HOP-92 NSCLC = system: HOP-92 NSCLC
K-562 leukemia = system: K-562 leukemia
CCRF-CEM leukemia = system: CCRF-CEM leukemia
HL-60(TB) leukemia = system: HL-60(TB) leukemia
SF-295 CNS = system: SF-295 CNS
HOP-62 NSCLC = system: HOP-62 NSCLC

Structure (SMILES)	GI50 (OVCAR-5 ovarian) [µM]	TGI (OVCAR-5 ovarian)	GI50 (HCT-15 colon) [µM]	TGI (HCT-15 colon)	GI50 (SW-620 colon) [µM]	TGI (SW-620 colon)	GI50 (OVCAR-8 ovarian) [µM]	TGI (OVCAR-8 ovarian)	GI50 (HOP-92 NSCLC) [µM]	TGI (HOP-92 NSCLC)	GI50 (K-562 leukemia) [µM]	TGI (K-562 leukemia)	GI50 (CCRF-CEM leukemia) [µM]	TGI (HL-60(TB) leukemia)	GI50 (SF-295 CNS) [µM]	TGI (SF-295 CNS)	TGI (HOP-62 NSCLC)	TGI (CCRF-CEM leukemia) [µM]	GI50 (HL-60(TB) leukemia) [µM]	GI50 (HOP-62 NSCLC) [µM]
CC(C)=CCC(OC(=O)C=C(C)C)C1=CC(=O)c2c(O)ccc(O)c2C1=O (stereo not drawn)	5.77	25.6 µM and 8.83 µM	1.07	3.22 µM and 1.13 µM	0.327	1.27 µM and 0.867 µM	2.27	7.19 µM and 2.98 µM	0.365	1.38 µM and 1.29 µM	0.0709	1.13 µM and 1.35 µM	0.0241	1.09 µM and 0.79 µM	2.15	20.9 µM and 6.13 µM	25.7 µM and 24.4 µM			
O=P1(S)OC[C@H]2O[C@@H]3[C@H](F)[C@@H]2OP(O)(=S)OC[C@H]2O[C@H]([C@H](F)[C@@H]2O1)n1cnc2c(ncnc21)NC/C=C/CNc1ncnc2c1ncn23 (stereo partly drawn)	> 44.1	> 100 µM	> 100	> 100 µM	> 100	> 100 µM	> 100	> 100 µM		> 100 µM	> 100	> 100 µM	> 100		> 100	> 100 µM	> 100 µM	> 100	0.365	> 100
CC1=Nc2ccccc2/C1=C\c1c(C)[nH]c2ccccc12		50.9 µM		31.5 µM		28.5 µM		27 µM		17.4 µM		> 100 µM		50.2 µM		43 µM	69.7 µM	> 100		
O=c1[nH]c2nc(NC3CCOCC3)ncc2cc1Oc1ccc(F)cc1F	> 25	> 25 µM	> 25	> 25 µM	> 25	> 25 µM	> 25	> 25 µM	> 25	> 25 µM	> 25	> 25 µM		> 25 µM	> 25	> 25 µM	> 25 µM		> 25	> 25
CCCC(=O)N[C@H]1C2C3CC4C5CC(C42)C1(C)C53 (stereo partly drawn)		> 100 µM		> 100 µM		> 100 µM				> 100 µM		> 100 µM		> 100 µM		> 100 µM	> 100 µM	> 100		
O=C(O)CCNCCCCNCCC(=O)O		> 100 µM		> 100 µM		> 100 µM		> 100 µM		> 100 µM		> 100 µM		> 100 µM		> 100 µM	> 100 µM	> 100		
N/N=C1\C(=O)N(c2ccc(Cl)cc2Cl)C(=O)C(=O)C1c1nc2ccccc2o1 (stereo not drawn)		> 100 µM		> 100 µM		> 100 µM		> 100 µM		> 100 µM		> 100 µM		> 100 µM		> 100 µM	> 100 µM	> 100		
C[Si](C)(C)/C=C\CCO		> 100 µM		> 100 µM		> 100 µM		> 100 µM		> 100 µM		> 100 µM		> 100 µM		> 100 µM		> 100		
COc1ccc(C(=O)NNc2nc(Cl)nc(N3CCN(C(c4ccccc4)c4ccccc4)CC3)n2)cc1	13.2	33.2 µM					1.89	4.36 µM	1.61	3.55 µM			1.25	10.5 µM	16	30.6 µM	10.7 µM	4.12	2.54	2.97
CC(C)Cc1ccc(C(C)CC2=CCC(CN(C)C)C2=O)cc1 (stereo not drawn)		29.9 µM		7.91 µM		4.48 µM		20.3 µM		8.41 µM		4.04 µM		4.47 µM		32.1 µM	36.4 µM	12.6		
CCOc1c(N=Nc2ccccc2Cl)c(-c2ccccc2)nn1C(=S)S		> 100 µM		> 100 µM		> 100 µM		> 100 µM		> 100 µM		> 100 µM		> 100 µM		> 100 µM	> 100 µM			
CC(C)(C)OC(=O)NCCCn1c2c(c3ccccc3c1=O)C(=O)c1ccccc1-2			> 100	> 100 µM	> 100	> 100 µM	13.3	58.2 µM	12.5	43.5 µM	> 100	> 100 µM	> 100	> 100 µM	16.8	44.6 µM	31.3 µM	> 100	> 100	11.8
C1CC2CN(CCCN3CCOCC3)C(C1)O2 (stereo not drawn)		> 100 µM		> 100 µM		> 100 µM		> 100 µM		> 100 µM		> 100 µM		> 100 µM		> 100 µM	> 100 µM			
Cc1ccc(S(=O)(=O)c2nc(-c3ccccc3)oc2S(C)=O)cc1 (stereo not drawn)	1.85	3.47 µM			1.47	3.48 µM	1.77	3.79 µM	1.38	2.77 µM	1.4	4.77 µM	2.77	4.71 µM	10	22.2 µM	20.3 µM	8.08	1.52	6.87
Cc1cccc(C)c1NC(=O)CCc1nc(=S)[nH][nH]1		> 100 µM		> 100 µM		> 100 µM		> 100 µM		> 100 µM		> 100 µM		> 100 µM			> 100 µM	> 100		
c1ccc2c(c1)oc1ccc3nsnc3c12		> 100 µM		> 100 µM		> 100 µM				> 100 µM		> 100 µM		> 100 µM		> 100 µM		> 100		
CC1CCSC(N(C(=O)N(C)c2ccccc2)c2ccccc2)=N1 (stereo not drawn)		> 100 µM		> 100 µM		> 100 µM		> 100 µM				> 100 µM		> 100 µM		> 100 µM	> 100 µM	> 100		

Structure (SMILES)	GI50 (OVCAR-5 ovarian) [µM]	TGI (OVCAR-5 ovarian)	GI50 (HCT-15 colon) [µM]	TGI (HCT-15 colon)	GI50 (SW-620 colon) [µM]	TGI (SW-620 colon)	GI50 (OVCAR-8 ovarian) [µM]	TGI (OVCAR-8 ovarian)	GI50 (HOP-92 NSCLC) [µM]	TGI (HOP-92 NSCLC)	GI50 (K-562 leukemia) [µM]	TGI (K-562 leukemia)	GI50 (CCRF-CEM leukemia) [µM]	TGI (HL-60(TB) leukemia)	GI50 (SF-295 CNS) [µM]	TGI (SF-295 CNS)	TGI (HOP-62 NSCLC)	TGI (CCRF-CEM leukemia) [µM]	GI50 (HL-60(TB) leukemia) [µM]	GI50 (HOP-62 NSCLC) [µM]
CN1CCc2c1nc(-c1ccc(Cl)cc1)c1c2N(C)CC1		73.3 µM		> 100 µM		> 100 µM		> 100 µM				62.1 µM		47.4 µM		31.1 µM	27.7 µM	55.2		
Cc1cc(N=C2C=C(Br)C(=O)C(Br)=C2)cc(CN(CC(=O)O)CC(=O)O)c1O		> 100 µM		> 100 µM		> 100 µM		> 100 µM				> 100 µM		> 100 µM		> 100 µM	> 100 µM	> 100		
COc1ncnc(S(=O)(=O)c2ccc(N=C3C(=O)N(CN4CCN(c5cc6c(cc5F)c(=O)c(C(=O)O)cn6C5CC5)CC4)c4ccc(Cl)cc43)cc2)c1OC	> 50	> 50 µM	19.7	> 50 µM	> 50	> 50 µM	32.9	> 50 µM	> 50	> 50 µM	24.6	> 50 µM		> 50 µM	> 50	> 50 µM	> 50 µM		26.8	31.6
NCCOCCOCCNc1nc(-c2ccc(Cl)cc2)nc(N2CCN(c3ccccn3)CC2)n1	2.32	5.11 µM	1.87	3.85 µM	1.75	3.35 µM	4.06	30.6 µM	2.36	7.57 µM				4.15 µM	2.35	6.46 µM			2.12	
COC(=O)c1c2c(cc3c1CC1(Cc4cc5c(c(C(C)=O)c4C1)CCC5)C3)CCC2 (stereo not drawn)		> 100 µM				> 100 µM		> 100 µM		> 100 µM		> 100 µM		86.4 µM		99.3 µM	> 100 µM	> 100		
COc1cc2c(cc1OCCCCCCN1CCN(CC(=O)Nc3ccc(Cl)cc3C(=O)c3ccccc3Cl)CC1)N=CC1CCCN1C2=O (stereo not drawn)	0.567	1.34 µM	0.518	1.18 µM	0.211	0.591 µM	0.201	0.607 µM	0.177	0.396 µM	0.193				0.18	0.461 µM	0.294 µM		0.244	0.146
C=CC(=O)Nc1cc(N2CCN(CC)CC2)ccc1Nc1cc(N(C)C(=O)Nc2c(Cl)c(OC)cc(OC)c2Cl)ncn1	19.4	51.2 µM	6.25	21.3 µM	3.29	11.7 µM	4.38	18.1 µM	4.94	21.7 µM			3.02	25.3 µM	16.7	31.8 µM	28.8 µM	11.2	4.91	11.9
Cc1cc(N(CCC#N)CCC#N)ccc1N=Nc1ccc(Br)cc1		> 100 µM		> 100 µM		> 100 µM		> 96.1 µM				> 100 µM		> 100 µM		> 51 µM	20.9 µM	> 31.6		
COc1ccc(/C(Cl)=C/c2cc(OC)ccc2OC)cc1				> 100 µM		> 100 µM		> 100 µM		> 100 µM		> 100 µM		81.8 µM		> 100 µM	> 100 µM	> 100		
CC(=O)O[C@]1(C)OC(=O)[C@@H](CC(C)C)N1[N+](=O)[O-]		> 100 µM		> 100 µM		> 100 µM		> 100 µM				> 100 µM		> 100 µM		> 100 µM	> 100 µM	> 100		
C1=C2CCCC3=Cc4ccccc4OC23Oc2ccccc21	3.46	> 100 µM	3.68	> 100 µM	3.36	53.6 µM	4.04	> 100 µM			3.54	> 100 µM	3.47	> 100 µM	3.99	> 100 µM	> 100 µM	25.9	3.24	3.8
O=c1[nH]c2ccccc2n1CCCN1CCC(n2c(=O)[nH]c3cc(Cl)ccc32)CC1		43.1 µM		39.9 µM		39.2 µM		38.6 µM		58.2 µM		65 µM		37.3 µM			36.4 µM	> 100		
COc1ccc(-c2nc(-c3nc4ccc(F)cc4[nH]3)c3ccccn23)cc1	45.2	> 100 µM	33.6	> 100 µM	22.4	> 100 µM	3.76	23.4 µM	3.67	43.8 µM	14	> 100 µM	4.39	> 100 µM			32.3 µM	> 100	39.8	7.41
Cc1nn2c(/C=C3/C(=O)Nc4cc(Cl)ccc43)c(-c3ccccc3)nc2s1	> 100	> 100 µM	4.79	> 100 µM	3	> 100 µM	2.89	> 100 µM			4.27	> 100 µM	4.35	> 100 µM	11.1	38.1 µM	17.9 µM	> 100	> 100	4.4
COc1cc2c(cc1OC)C(=O)/C(=C/c1cc(-c3ccc4c(c3)OCO4)n[nH]1)C2	1.56	3 µM	1.12	2.81 µM	1.35	3.47 µM	1.57	3.05 µM			1.59	> 100 µM	1.14	5.59 µM	1.64	3.26 µM	2.96 µM	3.61	2.07	1.53
C1CC[N-]CC1.CC(=N\O)/C(C)=N/O.CC(=N\O)/C(C)=N/O.OC1[CH-]CCCC1.[Co+2]	> 100	> 100 µM	65.5	> 100 µM	31.6	> 100 µM	28.9	> 100 µM	22.2	93.1 µM	33.4	> 100 µM		72.5 µM	> 100	> 100 µM	> 100 µM		21.7	> 100
COc1ccc(C(=O)C(CC2C(=O)NC(=O)NC2=O)c2ccc(OC)cc2)cc1 (stereo not drawn)		> 100 µM		> 100 µM		> 100 µM		> 100 µM				> 100 µM		> 100 µM		> 100 µM	> 100 µM	> 100		
